# Results published in patent US9115064B2, “N-hydroxylsulfonamide derivatives as new physiologically useful nitroxyl donors” (The Johns Hopkins University, priority 2007, dated 2015).
# Test: HNO production via N2O quantification (GC headspace analysis, Angeli's salt as benchmark)
# Format: physicochemical
# Settings: pH 7.4 in PBS buffer at 37° C.; for Nitrous oxide evolved as % of Angelis salt: relative to Angeli's salt
SMILES,% moles N2O/moles of sample [%],Nitrous oxide evolved as % of Angelis salt [%]
"[Na+].[Na+].[O-][N+]([O-])=NO [Angeli's Salt, sodium dioxotrinitrate, reference compound]",70.5,100
"COC(=O)c1ccccc1S(=O)(=O)NO [Compound 1, 2-Hydroxysulfamoyl-benzoic acid methyl ester]",30.5,43
"O=C(O)c1cccc(S(=O)(=O)NO)c1 [Compound 2, 3-Hydroxysulfamoyl-benzoic acid]",19,27
"O=C(O)c1ccc(Cl)c(S(=O)(=O)NO)c1 [Compound 3, 4-Chloro-3-hydroxysulfamoyl-benzoic acid]",81.5,116
"O=C(O)c1ccc(Br)c(S(=O)(=O)NO)c1 [Compound 4, 4-Bromo-3-hydroxysulfamoyl-benzoic acid]",82,117
"O=C(c1ccc(Br)c(S(=O)(=O)NO)c1)N1CCOCC1 [Compound 5, -Bromo-N-hydroxy-5-(morpholine-4-carbonyl)-benzenesulfonamide]",80.5,115
"CN(C)C(=O)c1ccc(Br)c(S(=O)(=O)NO)c1 [Compound 6, 4-Bromo-3-(hydroxysulfamoyl)-N,N-dimethylbenzamide]",81,116
"CN(C)C(=O)c1ccc(Cl)c(S(=O)(=O)NO)c1 [Compound 7, 4-Chloro-3-(hydroxysulfamoyl)-N,N-dimethylbenzamide]",85,122
"O=S(=O)(NO)c1ccccc1S(=O)(=O)N1CCOCC1 [Compound 8, N-Hydroxy-2-(morpholin-4-ylsulfonyl)benzene sulfonamide]",86,126
"O=C(OCCN1CCOCC1)c1ccc(Cl)c(S(=O)(=O)NO)c1 [Compound 9, -(Morpholin-4-yl)ethyl 4-chloro-3-(hydroxysulfamoyl)benzoate]",65,93
"O=C(NCCN1CCOCC1)c1cc(Br)c(S(=O)(=O)NO)s1 [Compound 97, 4-Bromo-5-(hydroxysulfamoyl)-N-[2-(morpholin-4-yl)ethyl]thiophene-2-carboxamide]",92,131
"O=C(c1cc(Br)c(S(=O)(=O)NO)s1)N1CCOCC1 [Compound 98, 3-Bromo-N-hydroxy-5-(morpholin-4-ylcarbonyl)thiophene-2-sulfonamide]",81,116
